Reference: patent US8158811B2, “Unsaturated fatty hydroxy acid derivatives and the dermocosmetologic use thereof” (Pierre Fabre Dermo-Cosmetique, priority 2005, dated 2012)

How the values were obtained:
ABCG1 = experiment: keratinocyte differentiation, real-time RT-PCR of ABCG1 transcripts; type: cell-based, human; settings: NHK, 48 hours
Description: (§1) Normal human keratinocytes (NHK) proliferate and differentiate in vitro, forming stratified layers which mimic the basal organisation of the skin. Extracellular calcium concentrations in excess of 0.1 mM initiate a cascade of genome and non-genome events which take the keratinocytes from a proliferative phase towards a differentiation phase. Keratinocyte differentiation can then be evaluated by studying the expression of several markers such as keratins 1 and 10, transglutaminase 1, desaturase DES2, involucrine, FATP4 and ABCG1 transporters. We therefore evaluated the effect of certain hydroxyalcene carboxylic acids in an in vitro culture model.
(§2) Normal human keratinocytes are isolated from skin explants. They are cultured in KSFM medium (Gibco) with a low calcium content (0.1 mM) containing 25 μg/ml of BPE (bovine pituitary extract) and […] of EGF (epithelium growth factor). 24 hours after culturing, differentiation is triggered by the addition of calcium (final concentration 1.2 mM). The active ingredients are added or not at the same time as calcium at concentrations of 100 and 1 μg/ml in order to determine whether or not they have a potentialising effect on differentiation. Cells were then analysed 48 hours after the addition of calcium and these products.
(§3) Total RNA was extracted under cold conditions from keratinocytes.
(§4) After reverse transcription of mRNA into cDNA, PCRs were made up in 96 well plates (iCycler quantitative PCR apparatus, BioRad). Expression of transcripts of transglutaminase, desaturase (DES2), ABCG1 and FATP4 were standardized with respect to the expression of reference genes (GAPDH, UBC, HPRT).

prostaglandin 6KF1α = experiment: production of prostaglandin 6KF1α by keratinocytes stimulated with calcium ionophore A23187 (ELISA); type: cell-based; settings: 3 μg/ml, A23187 1 μm 5 hours
Description: A suspension of keratinocytes in DMEM 10% foetal calf serum was divided into 6 well plates (1.2. 106cells/wells) and incubated for 16 hours at 37° C. in a 5% CO2 atmosphere. The keratinocytes were then rinsed with PBS in order to eliminate non adhering cells then exposed to the products to be tested included in DMEM without foetal calf serum (which could interfere with the assay).
The concentration tested in culture was 3 μg/ml. This was retained as the test concentration after a preliminary evaluation test for cytotoxicity (neutral red) and is not cytotoxic.
For each treatment, three wells were tested. Cells were pre-incubated for 60 minutes with the products to be tested then a stimulating agent was added to stimulate the arachidonic acid cascade (calcium ionophore) which was added for 5 hours: calcium ionophore A23187 was used at a concentration of 1 μm.
After 5 hours in culture, the culture medium for each well was recovered, centrifuged at 3000 rpm and stored at −80° C.
The production of prostaglandin 6KF1α for each of the tests was measured using a EUROMEDEX Elisa Kit.
Results are expressed as the percentage activity/stimulated control.

FATP4 = experiment: keratinocyte differentiation, real-time RT-PCR of FATP4 transcripts; type: cell-based, human; settings: NHK, 48 hours
Description: as §1, §2, §3, §4

Interleukin 8 = experiment: release of Interleukin 8 by keratinocytes NHK stimulated with PMA + calcium ionophore A23187 (ELISA); type: cell-based, human; settings: for % inhibition of IL-8 release: 3 μg/ml, keratinocytes, PMA + A23187 6 hours
[1] = tested on: membrane lipids, fibroblast line L929; experiment: TBARS test, lipid peroxidation after H2O2/Fe2+/Fe3+; type: cell-based, murin; settings: 0.02 ng/ml, pretreated 16 hours
Description: In order to evaluate membrane changes, we measured lipid peroxidation by in vitro assay of complexes between the products of lipid oxidation and thiobarbituric acid. These complexes are called TBARS (thiobarbituric acid reactive substances) and give the test its name: TBARS Test.
In order to mimic chemical oxidative stress, we treated a fibroblast line (L929) with a complex consisting of hydrogen peroxide (H2O2) and iron (Fe^2+/Fe^3+) thus reconstituting the Fenton reaction which is the source of oxygenated free radicals and particularly the hydroxyl radical (OH°) (D. A Vessey et al. 1992): H2O2+Fe^2+→OH°+OH^−+Fe^3+
The products were evaluated on a murin fibroblast line L929. Cells were pretreated with different concentrations of the product for 16 hours and were then stimulated with the H2O2/Fe^2+/Fe^3+ complex (200 μM−1 mM) for 1 hour. • Stock solutions: 100 mg/ml ethanol, 4° C. • Final solutions: 0.02 ng/ml.
Peroxidation of membrane lipids was analysed by measuring TBARS (Protocol ref. PLN°2, according to Morliere et al, 1991).
[…]. TBARS assays are therefore expressed in pmole/μg of protein. Proteins and TBARS are assayed in the intracellular medium.
Using the TBARS calculation in pmole/μg protein, we calculated the protective efficacy of various products against the oxidation of lipid membranes.
Four separate experiments were carried out. Several compounds were evaluated in the course of these experiments (the test only allows 10 molecules to be evaluated at one time). The compounds were evaluated several times and were chosen as a function of the results obtained in another test which also measured anti-radical activity (assay test for activated oxygen species).
The model used in this experiment (Fenton reaction) triggers considerable lipid peroxidation of the L929 fibroblasts. This massive release of the hydroxyl radical OH° thus generates oxidative stress in the cells, particularly in the membranes. However, in this type of oxidative reaction, the products resulting from lipid peroxidation are internalized in the cells and TBARS are therefore assayed in the intracellular medium.

desaturase DES2 = experiment: keratinocyte differentiation, real-time RT-PCR of DES2 transcripts; type: cell-based, human; settings: NHK, 48 hours
Description: as §1, §2, §3, §4

transglutaminase 1 (TG1) = experiment: keratinocyte differentiation, real-time RT-PCR of transglutaminase 1 transcripts; type: cell-based, human; settings: NHK, 48 hours
Description: as §1, §2, §3, §4

Row | SMILES | Induction Factor vs Control (CaCl2 1.2 mM) ABCG1 (ABCG1; 1 μg/ml) | % inhibiting activity of evaluated molecules on the production of PG6KF1α Inflammation (prostaglandin 6KF1α) | Induction Factor vs Control (CaCl2 1.2 mM) FATP4 (FATP4; 1 μg/ml) | % inhibition of IL-8 release (Interleukin 8) | % Inhibition a 3 μg/ml (Interleukin 8; IL8 release, NHK, PMA + A23187) | % membrane lipid protection, Mean [1] | Induction Factor vs Control (CaCl2 1.2 mM) DES2 (desaturase DES2; 1 μg/ml) | Induction Factor vs Control (CaCl2 1.2 mM) TG1 (transglutaminase 1 (TG1); 1 μg/ml) | Induction Factor vs Control (CaCl2 1.2 mM) ABCG1 (ABCG1; 100 μg/ml) | Induction Factor vs Control (CaCl2 1.2 mM) FATP4 (FATP4; 100 μg/ml) | Induction Factor vs Control (CaCl2 1.2 mM) DES2 (desaturase DES2; 100 μg/ml) | Induction Factor vs Control (CaCl2 1.2 mM) TG1 (transglutaminase 1 (TG1); 100 μg/ml)
1 | O=C(O)/C=C/CCCCCCCCCCCCCCO [n=13, R=H, Rn=H, R1=H, 17-hydroxy-heptadec-2t-enoic acid] | 3.0 | 25% | 1.4 | 62% | 62% | 22.10% | 3.0 | 1.4 |  |  |  | 
2 | O=C(O)/C=C/CCCCCCCCCCCO [n=10, R=H, Rn=H, R1=H, 14-hydroxy-tetradec-2t-enoic acid] | 1.4 | Non active | 1.2 | 30% |  | 27.18% | 2.0 | 1.5 | 25.5 | 5.9 | 125.8 | 31.4
3 | O=C(O)C=CCCCCCO [n=4, R=H, Rn=H, R1=H] | 1.2 |  | 1.0 | 15% |  | 37.88% | 1.0 | 1.2 | 2.5 | 1.4 | 2.2 | 1.7
4 | O=C(O)C(F)=CCCCCCO (mixture of isomers) [n=4, R=H, Rn=H, R1=F] | 2.6 | 30% | 1.3 | Non-active |  | 36.54% | 2.2 | 1.6 | 2.6 | 1.4 | 3.2 | 1.7
